# From ChEMBL document CHEMBL1149186, “Triacylglycerols based on 2-(N-tert-butoxycarbonylamino)oleic acid are potent inhibitors of pancreatic lipase” (J Med Chem, 2004)
# Experiments:
# [1] = molecular target: T1, Gastric triacylglycerol lipase (Homo sapiens) (UniProt P07098); test: Inhibition constant (molar fraction of compound) on human gastric lipase (HGL) at a constant surface pressure of 27 […]; details: Stomach
# T1 sequence (whole entry): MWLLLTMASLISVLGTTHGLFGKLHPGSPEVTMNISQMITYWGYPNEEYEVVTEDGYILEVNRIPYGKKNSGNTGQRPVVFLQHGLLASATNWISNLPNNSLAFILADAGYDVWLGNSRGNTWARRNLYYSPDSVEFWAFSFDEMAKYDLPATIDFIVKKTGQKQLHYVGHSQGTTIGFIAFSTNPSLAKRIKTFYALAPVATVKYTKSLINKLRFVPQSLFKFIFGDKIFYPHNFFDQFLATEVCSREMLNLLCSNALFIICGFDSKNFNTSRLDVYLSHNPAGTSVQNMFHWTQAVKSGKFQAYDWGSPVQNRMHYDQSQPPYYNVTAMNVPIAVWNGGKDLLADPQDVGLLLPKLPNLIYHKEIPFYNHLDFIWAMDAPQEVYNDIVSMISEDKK
# [2] = molecular target: T2, Pancreatic triacylglycerol lipase (Homo sapiens) (UniProt P16233); test: Inhibition constant (molar fraction of compound) on human pancreatic lipase (HPL) at a constant surface pressure of 25 […]
# T2 sequence (whole entry): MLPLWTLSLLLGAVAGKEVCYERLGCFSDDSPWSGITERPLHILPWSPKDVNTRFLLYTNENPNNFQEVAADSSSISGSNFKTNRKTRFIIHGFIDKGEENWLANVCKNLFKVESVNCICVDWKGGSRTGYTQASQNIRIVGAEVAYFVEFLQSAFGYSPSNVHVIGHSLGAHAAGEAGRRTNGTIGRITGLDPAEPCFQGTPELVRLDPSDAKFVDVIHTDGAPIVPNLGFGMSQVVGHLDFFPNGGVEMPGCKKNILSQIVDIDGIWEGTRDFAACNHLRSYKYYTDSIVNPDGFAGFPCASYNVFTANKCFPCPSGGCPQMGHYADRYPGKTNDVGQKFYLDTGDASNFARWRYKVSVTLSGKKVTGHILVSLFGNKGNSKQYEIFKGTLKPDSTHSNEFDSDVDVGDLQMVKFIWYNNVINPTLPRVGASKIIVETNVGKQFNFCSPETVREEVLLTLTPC
# [3] = molecular target: T1, Gastric triacylglycerol lipase (Homo sapiens); test: Inhibition constant (molar fraction of compound) on human gastric lipase (HGL) at a constant surface pressure of 17 […]; details: Stomach
# [4] = molecular target: T2, Pancreatic triacylglycerol lipase (Homo sapiens); test: Inhibition constant (molar fraction of compound) on human pancreatic lipase (HPL) at a constant surface pressure of 14 […]
Alpha 50 (molar fraction) [1],Alpha 50 (molar fraction) [2],Alpha 50 (molar fraction) [3],Alpha 50 (molar fraction) [4],SMILES
0.104,0.002,,,CCCCCCCC/C=C\CCCCCC[C@H](NC(=O)OC(C)(C)C)C(=O)OCC(C)(COC(=O)[C@H](CCCCCC/C=C\CCCCCCCC)NC(=O)OC(C)(C)C)OC(=O)[C@H](CCCCCC/C=C\CCCCCCCC)NC(=O)OC(C)(C)C
0.057,0.003,0.15,0.009,CCCCCCCC/C=C\CCCCCC[C@H](NC(=O)OC(C)(C)C)C(=O)OCC(COC(=O)[C@H](CCCCCC/C=C\CCCCCCCC)NC(=O)OC(C)(C)C)OC(=O)[C@H](CCCCCC/C=C\CCCCCCCC)NC(=O)OC(C)(C)C
